The values below are quoted from earlier work in patent publication US20150272935A1, “Use of a Factor Xa Inhibitor for Treating and Preventing Bleeding Events And Related Disorders in Patients Having Sensitivity to Vitamin K Antagonists Used As Anticoagulants” (priority 2014, published 2015).

Read-outs that look alike come from different tables or passages of the source.

For data set [1] the following is noted: rats.
For data set [2] the following is noted: monkeys.
The target of a further data set is CYP2C9*3 (Homo sapiens, UniProt P11712, I359L). The following applies: CYP2C9*3 versus CYP2C9*1.
Another data set deals with CYP2C9*2 (Homo sapiens, UniProt P11712, R144C). The following applies: CYP2C9*2 versus CYP2C9*1.

As to `CN1CCc2nc(C(=O)N[C@@H]3C[C@@H](C(=O)N(C)C)CC[C@@H]3NC(=O)C(=O)Nc3ccc(Cl)cn3)sc2C1.Cc1ccc(S(=O)(=O)O)cc1` [Edoxaban], the safety and tolerability entry (doses of up to 90 mg per day) was “generally safe and well tolerated”. The oral bioavailability entry (human subjects) is given as “orally bioavailable”, the oral bioavailability result in data set [1] is given as “orally bioavailable” and the oral bioavailability result in data set [2] was “orally bioavailable”.
With `CC(=O)CC(c1ccccc1)c1c(O)c2ccccc2oc1=O` (stereo not drawn) [Warfarin], the “reduction of warfarin metabolism” value is given as “about 90%” on CYP2C9*3 and “about 30%” on CYP2C9*2.
